Among the data in US20110152303A1, “Chemical Compounds” (GlaxoSmithKline LLC, priority 2009, published 2011) are IC50 values, retold here.

For the assay, the system named is VSV-G pseudotyped, replication defective HIV vector (HIV IIIB) in CIP4 cells. The assay can be described thus: microbe, parasite or virus in culture. Format: cell-based. The settings on record: Human immunodeficiency virus 1, CIP4, 48 h, read-out: IC50 in the PHIV assay.

As to `[2H]C([2H])([2H])c1cc(/C=C/C#N)cc(C([2H])([2H])[2H])c1Nc1ccnc(Nc2ccc(C#N)cc2)n1` [Compound D, (E)-4-((4-((4-(2-Cyanovinyl)-2,6-dimethylphenyl)amino)pyrimidin-2-yl)amino)benzonitrile-d6], the IC50 (usually the point on the concentration scale where inhibition reaches its midpoint) was 0.3 nM.
